Experimental data: article PMC7601446, “Significant Decreased Expressions of CaN, VEGF, SLC39A6 and SFRP1 in MDA-MB-231 Xenograft Breast Tumor Mice Treated with Moringa oleifera Leaves and Seed Residue (MOLSr) Extracts” (Nutrients, 2020)

Tests used:
estrogen (ES) = assay: Serum ELISA of estrogen in xenograft mice; assay type: in vivo; settings: TAM 30 mg/kg vs non-treated xenograft mice
[1] = test system: 84 key human breast cancer genes in MDA-MB-231 xenograft tumor; assay: Human Breast Cancer RT2 Profiler PCR array on excised tumor; assay type: in vivo, mice; settings: TAM-treated vs non-treated, p < 0.05
Experimental: (§1) Body weight and tumor volume were measured weekly up to two months. The tumor-growth-inhibition rate (I.R.) was calculated using the following formula: I.R. (%) = {[(Average tumor volume of the control − average tumor volume of the treated group)/Average tumor volume of the control] * 100%}. After two months, serum blood was collected for biochemical analysis. Subsequently, all organs (liver, kidney, spleen, heart and lung) and tumors were excised, weighted and calculated as relative organ weight (expressed as the percentage of organ weight to body weight). The tumors were snap-frozen in liquid nitrogen for gene expression analysis later.
Serum blood was subjected to biochemical analysis on calcineurin (CaN), estrogen (ES) and vascular endothelial cell growth factor (VEGF) proteins using ELISA kits (FineTest, Wuhan, China), following the manufacturer’s instructions. The Human Breast Cancer RT^2 Profiler PCR array (Rotor-Gene® Format) (PAHS-131ZR, Qiagen® GmbH, Hilden, Germany) was used to profile the expression of 84 genes associated with key human breast cancer pathways. Briefly, total RNA was isolated from pulverized tumor tissues of non-treated (negative control), high-dose M1S9-treated mice and TAM-treated (positive control) using RNeasy® Lipid Tissue Mini kit (Qiagen® GmbH, Hilden, Germany). Three biological replicates were prepared from each group. Eluted RNA was quantitated and purity-checked using UV-absorbance-based NanoDrop® (Thermo Scientific, Wilmington, NC, USA) and Agilent 2100 Bioanalyzer RNA 6000 Nano Chip (Agilent, Palo Alto, CA, USA), respectively. A total of 1000 ng of RNA sample was converted to cDNA using RT^2 First Strand Kit (Qiagen® GmbH, Hilden, Germany) according to the manufacturer’s protocol. The cDNA was then mixed with RT^2 SYBR Green ROX FAST Mastermix and RNase-free water before dispensing into the array and then subjected to Rotor-Gene® Q real time PCR cycler (Qiagen® GmbH, Hilden, Germany) for analysis. Threshold cycle (CT) of each gene was analyzed for ΔΔCT after normalization using housekeeping genes in the web-based RT^2 Profiler Data Analysis Software (https://www.qiagen.com/my/shop/genes-and-pathways/data-analysis-center-overview-page/).

[2] = Body weight and relative organ weight in MDA-MB-231 xenograft mice; assay type: in vivo, NOD/ShiJic-SCID mice; settings: up to eight weeks
Experimental: Animal study was approved by the UiTM Committee on Animal Research and Ethics (Ethic approval number: UiTM CARE 278/2019 (05/04/2019)). All animal experiments were conducted in accordance with standard ethical guidelines. Six- to eight-week-old female SPF NOD/ShiJic-SCID mice were obtained from Nomura Siam International (Bangkok, Thailand). […] To evaluate the tumorigenesis in the animal model, the highly aggressive MDA-MB-231 cell lines were injected into SCID mice to induce the breast cancer model. MDA-MB-231 cell lines (ATCC® HTB-26TM) were grown in Leibovitz's medium (L15) (HyClone, Rd. Logan, UT, USA) with 10% fetal bovine serum (FBS) (Gibco, Gaithersburg, MD, USA) and 1% penicillin-streptomycin (Beyotime Biotechnology, Haimen, Jiangsu, China) in a humidified incubator at 37 °C without CO2. Mice were subcutaneously injected with 3 × 10^6/100 μL MDA-MB-231 cells into the right flank region in the SCID mice. […] Body weight and tumor volume were measured weekly up to two months. […] Subsequently, all organs (liver, kidney, spleen, heart and lung) and tumors were excised, weighted and calculated as relative organ weight (expressed as the percentage of organ weight to body weight). […]

[3] = test system: vascular endothelial cell growth factor (VEGF); assay: Serum ELISA of VEGF in xenograft mice; assay type: in vivo; settings: high-dose M1S9 or TAM 30 mg/kg vs non-treated xenograft mice
Experimental: as §1
(§2) Serum blood was subjected to biochemical analysis on calcineurin (CaN), estrogen (ES) and vascular endothelial cell growth factor (VEGF) proteins using ELISA kits (FineTest, Wuhan, China), following the manufacturer’s instructions. […] Eluted RNA was quantitated and purity-checked using UV-absorbance-based NanoDrop® (Thermo Scientific, Wilmington, NC, USA) and Agilent 2100 Bioanalyzer RNA 6000 Nano Chip (Agilent, Palo Alto, CA, USA), respectively. […] Threshold cycle (CT) of each gene was analyzed for ΔΔCT after normalization using housekeeping genes in the web-based RT^2 Profiler Data Analysis Software (https://www.qiagen.com/my/shop/genes-and-pathways/data-analysis-center-overview-page/).

[4] = test system: MDA-MB-231 xenograft tumor; assay: In vivo tumorigenicity study, MDA-MB-231 xenograft mice; parameters: species or system NOD/ShiJic-SCID mice
Experimental: Animal study was approved by the UiTM Committee on Animal Research and Ethics (Ethic approval number: UiTM CARE 278/2019 (05/04/2019)). All animal experiments were conducted in accordance with standard ethical guidelines. Six- to eight-week-old female SPF NOD/ShiJic-SCID mice were obtained from Nomura Siam International (Bangkok, Thailand). All mice were housed in the pathogen-free environment under controlled conditions (temperature 20–26 °C, humidity 40–70%, light/dark cycle 12 h/12 h) and received water and food ad libitium. To evaluate the tumorigenesis in the animal model, the highly aggressive MDA-MB-231 cell lines were injected into SCID mice to induce the breast cancer model. MDA-MB-231 cell lines (ATCC® HTB-26™) were grown in Leibovitz’s medium (L15) (HyClone, Rd. Logan, UT, USA) with 10% fetal bovine serum (FBS) (Gibco, Gaithersburg, MD, USA) and 1% penicillin-streptomycin (Beyotime Biotechnology, Haimen, Jiangsu, China) in a humidified incubator at 37 °C without CO2. Mice were subcutaneously injected with 3 × 10^6/100 μL MDA-MB-231 cells into the right flank region in the SCID mice.
as §1

calcineurin (CaN) = assay: Serum ELISA of calcineurin in xenograft mice; assay type: in vivo; settings: high-dose M1S9 or TAM 30 mg/kg vs non-treated xenograft mice
Experimental: as §1, §2

[5] = Ferric reducing antioxidant power (FRAP) assay; settings: mean ±2 standard deviation (n = 3)
Experimental: Moringa mixtures were subjected to phytochemical analysis following methods described by Harborne (1998) and Kokate (2005), which are based on visual observation of color changes or the formation of precipitates. Quantitative analysis of total flavonoid content (TFC) and total phenolic content (TPC) of moringa mixtures were determined spectrophotometrically by the aluminum calorimetric method (quercetin as the reference standard) and Folin–Ciocalteu method (gallic acid as the reference standard) with minor modifications, respectively. […] These antioxidant assays were carried out according to Yang et al. (2011) with slight modifications. Detailed steps were described previously by Abdul Hisam et al. (2018). All the experiments were conducted in triplicate.

Row | Structure (SMILES) | ES protein level (estrogen (ES)) | AR gene expression [1] | CTNNB1 gene expression [1] | ESR1 gene expression [1] | IL6 gene expression [1] | MYC gene expression [1] | NR3C1 gene expression [1] | THBS1 gene expression [1] | body weight changes [2] | VEGF protein level [3] | tumor volume compared to the control mice ([4]; M1S9 all three doses, TAM 30 mg/kg, up to six weeks, p < 0.05) | tumor growth inhibition (highest inhibition rate) ([4]; TAM 30 mg/kg subcutaneously, sixth week) | tumor growth inhibition ([4]; TAM 30 mg/kg subcutaneously, third week) [%] | CaN protein level (calcineurin (CaN)) | FRAP [5]
1 | CC/C(=C(\c1ccccc1)c1ccc(OCCN(C)C)cc1)c1ccccc1 [TAM, tamoxifen] | decreased significantly | induced significantly | suppressed significantly | induced significantly | induced significantly | induced significantly | induced significantly | induced significantly | no significant difference | decreased significantly | significant reduction | up to 80.5% | 69.1 | decreased significantly | –
2 | O=C1O[C@H]([C@@H](O)CO)C(O)=C1O [ascorbic acid] | – | – | – | – | – | – | – | – | – | – | – | – | – | – | 172.41 ± 12.6 ^$ µg Trolox/mg
